Test results published in patent publication US8790902B2, “Microorganisms having enhanced tolerance to inhibitors and stress” (UT-Batelle, LLC, priority 2009, dated 2014).
Like-named read-outs stand apart in the source and are kept apart here.

Columns and labels:
[1] = system: Zymomonas mobilis ZM4 wild-type; assay: Bioscreen growth of Z. mobilis ZM4 wild-type in RM with inhibitors; type: cell-based; conditions: for Final Cell Density / Growth rate: ZM4
Description: (§1) FIGS. 3A-3C. […] Z. mobilis strains were grown in RM (pH5.0) overnight, 20-μL culture were then transferred into 250-μL, RM media in the Bioscreen plate. […] Strains included in this study are: ZM4: Zymomonas mobilis ZM4 wild-type; AcR: ZM4 acetate tolerant mutant (Joachimstahl 1998); ZM4 (p42-0347): ZM4 containing a gateway plasmid p42-0347 over-expressing ZM4 gene ZMO0347; AcRIM0347: AcR insertional mutant of ZMO0347; AcRIM0347 (p42-0347): AcRIM0347 containing gateway plasmid p42-0347 over-expressing ZM4 gene ZMO0347. […] Triplicates were used for each condition.
(§2) FIGS. 4A-4E. […] Z. mobilis strains were grown in RM (pH5.0) overnight, 5-μL culture were then transferred into 250-μL RM media in the Bioscreen plate. […] Strains included in this study are: ZM4: Zymomonas mobilis ZM4 wild-type; AcR: ZM4 acetate tolerant mutant; ZM4 (p42-0347): ZM4 containing a gateway plasmid p42-0347 to express ZM4 gene ZMO0347; AcRIM0347: AcR insertional mutant of ZMO0347; AcRIM0347 (p42-0347): AcRIM0347 containing gateway plasmid p42-0347. […] Duplicate biological replicates were used for each condition.
(§3) FIGS. 5A-5E. […] Z. mobilis strains were grown in RM (pH 5.0) overnight, 5-μL culture were then transferred into 250-μL RM media in the Bioscreen plate. […] Strains included in this study are: ZM4: Zymomonas mobilis ZM4 wild-type; AcR: ZM4 acetate tolerant mutant; AcRIM0347: AcR insertional mutant of ZMO0347; AcRIM0347 (p42-0347): AcRIM0347 containing gateway plasmid p42-0347 over-expressing ZM4 gene ZMO0347.
(§4) American Type Culture Collection (ATCC31821) and the Z. mobilis acetate tolerant strain AcR has been described previously (Joachimsthal et al. 2000). ZM4 and AcR were cultured in RM medium at 30° C. S. cerevisiae wild-type, deletion mutant and GST-fusion ORF over-expression strains were obtained through Open Biosystems (Huntsville, Ala.). S. cerevisiae strains were cultured in rich YPD media. CM media with 2% glucose was used for S. cerevisiae wild-type and S. cerevisiae deletion mutants, CM media with 2% glucose minus uracil was used for S. cerevisiae GST-over expressing strains, 2% galactose was used to induce the GST-fusion strains. Plasmid-containing strains were routinely grown with antibiotics at the following concentrations (μg/mL): kanamycin of 50 for E. coli and 200 for ZM4; tetracycline, 10 for E. coli and 20 for ZM4; and gentamicin, 10 for E. coli. G418 of 200 for S. cerevisiae YKO deletion mutants. Growth was monitored turbidometrically by measuring optical density at 600nm periodically with the Bioscreen C automated microbiology growth curve analysis system (Growth Curve USA, Piscataway, N.J.).

[2] = system: AcR: ZM4 acetate tolerant mutant; type: cell-based, Zymomonas mobilis; conditions: for Final Cell Density / Growth rate: AcR
Description: as §1, §2, §3, §4

AcRIM0347 (p42-0347) = type: cell-based, Zymomonas mobilis; conditions: for Lag phase of AcRIM0347 (p42-0347) versus AcRIM0347 grown with inhibitor: Table 4, FIGS. 5A-5D
Description: as §1, §2, §3, §4

[3] = system: AcRIM0347: AcR insertional mutant of ZMO0347; type: cell-based, Zymomonas mobilis; conditions: for Final Cell Density / Growth rate: AcRIM0347, RM with HMF 0.75 g/L, furfural or vanillin 1 g/L; for Growth of hfq mutant AcRIM0347 in the presence of acetate salt: 195 mM in RM
Description: as §1, §2, §3, §4

Z. mobilis = assay: Bioscreen growth of Z. mobilis with pretreatment inhibitors (strain not specified); type: cell-based, Zymomonas mobilis; conditions: for Time to complete active growth and reach the stationary phase: in the presence of the inhibitor, 11 h without any inhibitor (FIGS. 5A-5D)
Description: FIGS. 5A-5E. Z. mobilis Hfq conferred tolerance to different classes of pretreatment inhibitors. Z. mobilis strains were grown in RM (pH 5.0) overnight, 5-μL culture were then transferred into 250-μL RM media in the Bioscreen plate. The growth differences of different strains were monitored by Bioscreen (Growth Curves USA, NJ) under anaerobic conditions in RM, pH 5.0 (A), RM with 1 g/L vanillin, pH 5.0 (B), 1 g/L furfural, pH 5.0 (C), 1 g/L HMF, pH 5.0 (D) and 0.001% H2O2 (E). Strains included in this study are: ZM4: Zymomonas mobilis ZM4 wild-type; AcR: ZM4 acetate tolerant mutant; AcRIM0347: AcR insertional mutant of ZMO0347; AcRIM0347 (p42-0347): AcRIM0347 containing gateway plasmid p42-0347 over-expressing ZM4 gene ZMO0347. This experiment has been repeated at least three times with similar result for hydrogen peroxide growth and in duplicate for the vanillin growth.
as §4

[4] = system: S. cerevisiae Lsm protein over-expressing strains; assay: Bioscreen growth of S. cerevisiae Lsm protein over-expressing (GST) strains with inhibitors; type: cell-based; conditions: 1.5 g/L
Description: FIGS. 6A-6B. […] S. cerevisiae strains were grown in CM with 2% glucose for wild-type BY4741 and the deletion mutants, CM with 2% glucose minus uracil for GST over-expression strains. Five-μL culture was then transferred into 300-μL CM broth in the Bioscreen plate.
FIGS. 7A-7P. […] S. cerevisiae strains were grown in CM with 2% glucose (CM+glucose) for wild-type BY4741 and the deletion mutants, CM with 2% glucose and 2% galactose minus uracil (CM+glucose+2% galactose) for GST overexpression strains. A 5-μL culture was then transferred into 250-μL CM broth in the Bioscreen plate.
as §4

ZM4 (p42-0347) = assay: Bioscreen growth of ZM4 (p42-0347) in RM with sodium and acetate ions; type: cell-based, Zymomonas mobilis; conditions: ZM4 (p42-0347); RM pH 5.0 supplemented with 195 mM of the chemical, anaerobic
Description: as §1, §2, §4

[5] = RM with HMF 0.75 g/L, furfural or vanillin 1 g/L
[6] = AcRIM0347(p42-0347), RM with HMF 0.75 g/L, furfural or vanillin 1 g/L
[7] = RM pH 5.0 supplemented with 195 mM of the chemical, anaerobic, NA = lack of growth
[8] = RM pH 5.0 supplemented with 195 mM of the chemical, anaerobic
[9] = AcRIM0347 (p42-0347), RM pH 5.0 supplemented with 195 mM of the chemical, anaerobic

Structure (SMILES)	Final Cell Density [1, 5]	Growth rate [1, 5]	Final Cell Density [2, 5]	Growth rate [2, 5]	Final Cell Density (AcRIM0347 (p42-0347); [6])	Growth rate (AcRIM0347 (p42-0347); [6])	Lag phase of AcRIM0347 (p42-0347) versus AcRIM0347 grown with inhibitor (AcRIM0347 (p42-0347))	Final Cell Density [3]	Growth rate [3]	Time to complete active growth and reach the stationary phase (Z. mobilis)	Growth of Lsm overexpression strains with inhibitor [4]	Final Cell Density [1, 7]	Growth rate [1, 7]	Final Cell Density [2, 8]	Growth rate [2, 8]	Final Cell Density (AcRIM0347 (p42-0347); [9])	Growth rate (AcRIM0347 (p42-0347); [9])	Growth of hfq mutant AcRIM0347 in the presence of acetate salt [3]	Final Cell Density (ZM4 (p42-0347))	Growth rate (ZM4 (p42-0347))	further results
O=Cc1ccco1 [Furfural, furfural]	0.88 ± 0.006 OD600 nm	0.31 ± 0.01 h⁻¹	0.89 ± 0.009 OD600 nm	0.30 ± 0.005 h⁻¹	0.80 ± 0.02 OD600 nm	0.20 ± 0.01 h⁻¹	shorter lag phases	0.67 ± 0.001 OD600 nm	0.19 ± 0.03 h⁻¹	~19 h	slight growth advantage	–	–	–	–	–	–	–	–	–	–
OO [H2O2, hydrogen peroxide]	–	–	–	–	–	–	–	–	–	–	–	–	–	–	–	–	–	–	–	–	Growth of ZM4 in RM medium with H2O2 ([1]; 0.001% H2O2): grew well; Growth of AcR in RM medium with H2O2 ([2]; 0.001% H2O2): grew well; Growth of AcRIM0347(p42-0347) in RM medium with H2O2 (AcRIM0347 (p42-0347); 0.001% H2O2): to grow; Growth of AcRIM0347 in RM medium with H2O2 ([3]; 0.001% H2O2): no observable growth
O=Cc1ccc(CO)o1 [HMF, hydroxymethyl furfural]	0.93 ± 0.003 OD600 nm	0.36 ± 0.02 h⁻¹	0.96 ± 0.006 OD600 nm	0.35 ± 0.01 h⁻¹	0.78 ± 0.02 OD600 nm	0.22 ± 0.001 h⁻¹	shorter lag phases	0.67 ± 0.03 OD600 nm	0.19 ± 0.02 h⁻¹	about 16 h	slight growth advantage	–	–	–	–	–	–	–	–	–	Relative inhibitory effect on Z. mobilis among vanillin, furfural and HMF (Z. mobilis; Table 4 conditions): least effect
CC(=O)[O-].[K+] [Kac, potassium acetate]	–	–	–	–	–	–	–	–	–	–	–	0.42 ± 0.002 OD600 nm	0.15 ± 0.004 h⁻¹	0.40 ± 0.000 OD600 nm	0.12 ± 0.000 h⁻¹	0.28 ± 0.007 OD600 nm	0.09 ± 0.003 h⁻¹	unable to grow	0.34 ± 0.004 OD600 nm	0.12 ± 0.006 h⁻¹	–
CC(=O)O.N [NH4OAc, ammonium acetate]	–	–	–	–	–	–	–	–	–	–	–	0.43 ± 0.01 OD600 nm	0.20 ± 0.008 h⁻¹	0.42 ± 0.006 OD600 nm	0.19 ± 0.005 h⁻¹	0.32 ± 0.007 OD600 nm	0.22 ± 0.002 h⁻¹	unable to grow	0.37 ± 0.008 OD600 nm	0.19 ± 0.007 h⁻¹	–
